Data taken from article PMC7251097, “Aspartate/asparagine-β-hydroxylase: a high-throughput mass spectrometric assay for discovery of small molecule inhibitors” (Scientific Reports, 2020).
Structures can show the parent of a compound that is named as a salt. Where two headings read alike, the source gives them in different places.

Biological target: T1, His6-AspH315–758 (human aspartate/asparagine-β-hydroxylase, AspH) (Homo sapiens, UniProt Q12797)
T1 construct: N-Terminally His6-tagged human AspH315–758 (His6-AspH315–758) was produced in E. coli BL21 (DE3) cells; made in house; host or cells: E. coli BL21 (DE3), pET-28a(+) vector
T1 sequence (Q12797 315-758): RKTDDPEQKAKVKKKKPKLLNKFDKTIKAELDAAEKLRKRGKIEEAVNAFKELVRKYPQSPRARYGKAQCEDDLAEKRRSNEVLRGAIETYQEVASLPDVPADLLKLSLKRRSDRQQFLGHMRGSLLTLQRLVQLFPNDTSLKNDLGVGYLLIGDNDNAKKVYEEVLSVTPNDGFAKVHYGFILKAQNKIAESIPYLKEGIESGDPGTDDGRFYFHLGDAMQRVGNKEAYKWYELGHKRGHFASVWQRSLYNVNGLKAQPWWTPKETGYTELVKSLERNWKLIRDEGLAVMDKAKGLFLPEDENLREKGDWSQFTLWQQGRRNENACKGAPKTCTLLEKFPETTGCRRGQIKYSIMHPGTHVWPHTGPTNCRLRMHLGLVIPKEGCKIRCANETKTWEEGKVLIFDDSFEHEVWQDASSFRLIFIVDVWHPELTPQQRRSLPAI
Assay: SPE-MS AspH inhibition assay (LOPAC screen at fixed 20 μM and IC50 dose-response), hydroxylation of cyclic peptide hFX-CP101–119
Assay type: biochemical
Conditions: for % inhibition / % conversion: LOPAC Plate 4, compound at 20 uM; for % conversion / Plate 1 (% conversion): substrate conversion; for Plate 1 (% inhibition) / Plate 1 (% conversion): LOPAC compound at fixed 20 uM; for Plate 1 (% inhibition): plate 1, normalised to DMSO and 2,4-PDCA controls

[1] = LOPAC compound at 20uM, plate 2, conversion of substrate peptide
[2] = LOPAC compound at 20uM, plate 2, normalised to DMSO and 2,4-PDCA controls
[3] = LOPAC compound at 20uM, plate 2, normalised to DMSO and 2,4-PDCA controls, read-out: Plate 2 (% inhibition)
[4] = LOPAC compound at 20uM, conversion of substrate peptide
[5] = read-out: Plate 2 (% inhibition)

Clc1ccc(N2CCN(Cc3cc4ccccn4n3)CC2)cc1 [FAUC 213]
% inhibition: -8.79% | % conversion: 39.47%

COC(=O)c1c(C)[nH]c(C)c1C(=O)c1ccccc1Cc1ccccc1 [FPL 64176]
Plate 2 (% conversion) [1]: 38.85% | Plate 2 (% inhibition) [2]: -8.64%

NC(=O)OCC(COC(N)=O)c1ccccc1 [Felbamate]
Plate 2 (% conversion) [1]: 34.68% | inhibition at 20 µM [3]: 3.82%

CN1CC(=O)NC1=NC(=O)Nc1cccc(Cl)c1 [Fenobam]
Plate 3 (% conversion) [4]: 36.37%

Oc1ccc(C2CNCCc3c2cc(O)c(O)c3Cl)cc1 (stereo not shown) [Fenoldopam bromide, reference compound]
inhibition at 20 µM (AspH activity, fixed compound concentration 20 μM, initial LOPAC screen, 0.5%v/v DMSO, read-out: Inhibition at 20 µM [%]): 98.3% | Plate 2 (% conversion) [1]: 3.05% | inhibition at 20 µM [3]: 98.3%

CC(Cc1ccc(O)cc1)NCC(O)c1cc(O)cc(O)c1 (stereo not shown) [Fenoterol hydrobromide]
Plate 2 (% conversion): 38.93% | inhibition at 20 µM [5]: -8.89%

COc1cccc2c1[C@@H]1CN(CCCCn3c(=O)[nH]c4c(sc5ncc(-c6ccccc6)nc54)c3=O)C[C@@H]1CO2 [Fiduxosin hydrochloride]
Plate 2 (% conversion) [1]: 64.73% | inhibition at 20 µM [3]: -85.9%

Fc1ccc(C(c2ccc(F)cc2)N2CCN(C/C=C/c3ccccc3)CC2)cc1 [Flunarizine dihydrochloride]
Plate 2 (% conversion) [1]: 46.32% | inhibition at 20 µM [3]: -31%

CNCCC(Oc1ccc(C(F)(F)F)cc1)c1ccccc1 (stereo not shown) [Fluoxetine hydrochloride]
Plate 2 (% conversion) [1]: 43.85% | inhibition at 20 µM [3]: -23.6%

OCCN1CCN(CCCN2c3ccccc3Sc3ccc(C(F)(F)F)cc32)CC1 [Fluphenazine dihydrochloride]
Plate 2 (% conversion): 63.32% | inhibition at 20 µM [3]: -81.7%

CCOC(=O)Nc1ccc(NCc2ccc(F)cc2)nc1N [Flupirtine maleate]
Plate 2 (% conversion) [1]: 33.85% | inhibition at 20 µM [3]: 6.29%

O=C1NCN(c2ccccc2)C12CCN(CCCC(c1ccc(F)cc1)c1ccc(F)cc1)CC2 [Fluspirilene]
Plate 2 (% conversion) [1]: 58.99% | inhibition at 20 µM [3]: -68.8%

CC(C)C(=O)Nc1ccc([N+](=O)[O-])c(C(F)(F)F)c1 [Flutamide]
Plate 2 (% conversion) [1]: 40.61% | inhibition at 20 µM [3]: -13.9%

O=CN(O)CCCP(=O)([O-])O.[Na+] [Fosmidomycin sodium salt hydrate]
Plate 3 (% conversion) [4]: 34.84%

C[C@]12CC[C@@H]3c4ccc(O)cc4C[C@@H](CCCCCCCCC[S+]([O-])CCCC(F)(F)C(F)(F)F)[C@H]3[C@@H]1CC[C@@H]2O (stereo partly shown) [Fulvestrant]
Plate 1 (% inhibition): 12.89% | Plate 1 (% conversion): 31.54%

Cc1nc2c([nH]1)c(=O)n(C)c(=O)n2Cc1ccco1 [Furafylline]
Plate 2 (% conversion) [1]: 36.33% | inhibition at 20 µM [3]: -1.12%

O=C([O-])c1cc2cc(Cc3cccnc3)ccc2o1.[Na+] [Furegrelate sodium]
Plate 2 (% conversion) [1]: 36.88% | Plate 2 (% inhibition) [2]: -2.76%

NS(=O)(=O)c1cc(C(=O)O)c(NCc2ccco2)cc1Cl [Furosemide]
inhibition at 20 µM [3]: 2.67%

CCCCc1ccc(C(=O)O)nc1 [Fusaric acid]
Plate 2 (% conversion): 28.15% | inhibition at 20 µM [5]: 23.3%

CC(=O)O[C@H]1C[C@@]2(C)[C@@H](C[C@@H](O)[C@H]3[C@@]4(C)CC[C@@H](O)[C@@H](C)[C@@H]4CC[C@@]32C)/C1=C(\CCC=C(C)C)C(=O)[O-].[Na+] [Fusidic acid sodium]
Plate 2 (% conversion) [1]: 40.54% | Plate 2 (% inhibition) [2]: -13.68%

NCCCC(=O)O [GABA]
Plate 1 (% inhibition): -1.98% | Plate 1 (% conversion): 36.54%

CN(C)c1ccccc1CN1CCCN(Cc2ccccc2N(C)C)C1c1ccncc1 [GANT61]
% inhibition: -13.34% | % conversion: 41.02%

Cl.Cl.Fc1ccc(C(OCCN2CCN(CCCc3ccccc3)CC2)c2ccc(F)cc2)cc1 [GBR-12909 dihydrochloride]
Plate 2 (% conversion) [1]: 51.05% | Plate 2 (% inhibition) [2]: -45.09%

Cl.Cl.c1ccc(CCCN2CCN(CCOC(c3ccccc3)c3ccccc3)CC2)cc1 [GBR-12935 dihydrochloride]
Plate 2 (% conversion): 46.64% | Plate 2 (% inhibition) (20 µM): -31.91%
